From patent US20110009368A1, “SOLID FORMS OF TENOFOVIR DISOPROXIL” (ULTIMORPHIX TECHNOLOGIES B.V., priority 2007, published 2011)
“Also recorded” adds a separate entry of the source. Counter-ions that a name gives are not always drawn.

Assays:
[1] = Dynamic Vapour Sorption (DVS) moisture sorption; assay type: physicochemical; details: for total uptake of water vapours (max water adsorption, hygroscopicity): relative humidity 0% to 95% in steps of 5%, 1 h per step
Description: Moisture sorption isotherms were measured using a DVS-1 system of Surface Measurement Systems (London, UK). Differences in moisture uptake of a solid material indicate differences in the relative stabilities of the various solid forms for increasing relative humidity. The experiment was carried out at a constant temperature of 25° C.
A sample of about 15 mg of TDSU ULT-1 was spread in the DVS pan. The sample was dried at 0% RH for 7 h. Subsequently the relative humidity of the chamber was increased in steps of 5% units from 0% to 95% in order to monitor the sorption of water vapours. The samples remained in each of the steps for 1 h. Following, desorption was monitored by decreasing the relative humidity to 0% in steps of 5% units and remaining at each step for 1 h. The graph of sorption-desorption cycle is shown below. […] In a similar DVS experiment using the starting material as purchased, the total vapour intake was about 4%, which is undesirable in formulation and requires additional measures.

[2] = Intrinsic dissolution rate measurement (micro-dissolution, UV); assay type: physicochemical; details: 20 ml, 100 rpm
[3] = as above; assay type: physicochemical; details: for Dissolution rate: 20 ml, 100 rpm
Description: 20 ml of high pure water was placed in 25 ml vial in the micro-dissolution thermal block by using a 20 ml volumetric pipette. A large cross stirrer was placed to the vial and the solution was stirred at a speed of 100 rpm. The 5 mm path length tip was placed from the top along with the probe connected with DAD (Diode Array Detector) analyzer. The 100% transmittance and dark spectra was collected by using high pure water. In the next step a tablet of 10 mg of Tenofovir disoproxil succinate (TDSU ULT-1) was pressed on tablet machine and placed along with the stirrer in a 25 ml vial in the micro-dissolution thermal block. The probe was placed along with the 5 mm path length tip and 20 ml of high pure water was added to the sample. The solution was stirred with a speed of 100 rpm and absorbance or the optical density was determined with respect to time by UV spectrometer. The intrinsic dissolution rate was determined by plotting concentration versus time and calculating the slope of the curve.
The same experiments were performed in a similar manner in buffered media of pH values of […]. pH buffers for dissolution pH 1.5: USP SGF without pepsin (0.05M sodium chloride adjusted to pH 1.5 with HCl) pH 3.0: 0.05 sodium di-hydrogen phosphate buffer adjusted to […] with NaOH pH 4.5: 0.05M sodium di-hydrogen phosphate buffer adjusted to pH 4.5 with NaOH pH 6.8: USP SIF without pancreatin (0.05M sodium di-hydrogen phosphate buffer adjusted to pH 6.8 with NaOH) pH 7.4: 0.05M sodium di-hydrogen phosphate adjusted to pH 7.4 with NaOH Results of intrinsic dissolution rate measurements

[4] = known crystalline form; compared with industry limits; cited from earlier work
[5] = Stress testing in climatic chamber, physical and chemical stability by XRPD and HPLC; assay type: physicochemical; details: 40° C. and 75% relative humidity
Description: A small quantity (of about 10 milligrams) of TDSU ULT-1 was placed in a Binder climatic chamber KBR115 series for stress testing under 40° C. and 75% relative humidity (RH). The material was checked for physical and chemical stability by XRPD and HPLC respectively in intervals of 2 and 4 weeks. In both cases the material was stable, i.e. no structural change or chemical degradation took place over the tested period.

| Molecule | total uptake of water vapours (max water adsorption, hygroscopicity) ([1]; DVS, 25° C.) | Dissolution rate ([2]; Buffer pH 3.0, 10 mg tablet) [mgmin−1 cm−2] | Dissolution rate ([2]; Buffer pH 6.8, 10 mg tablet) [mgmin−1 cm−2] | Dissolution rate ([3]; Buffer pH 1.5, 10 mg tablet) [mgmin−1 cm−2] | Dissolution rate ([3]; Buffer pH 4.5, 10 mg tablet) [mgmin−1 cm−2] | Dissolution rate ([3]; water, 10 mg tablet) [mgmin−1 cm−2] | Hygroscopicity [4] [%] | hygroscopicity (conclusion from DVS data) ([1]; DVS, 25° C., 0% to 95% RH) | structure by XRPD at the end of the DVS experiment ([1]; after sorption-desorption cycle) | Dissolution rate ([2]; Buffer pH 7.4, 10 mg tablet) [mgmin−1 cm−2] | physical and chemical stability (XRPD and HPLC) ([5]; 2 weeks) | physical and chemical stability (XRPD and HPLC) ([5]; 4 weeks) | dissolving faster compared to TDF 1:1 ([3]; in water and in all media with pH values ranging from 1.5 to 7.4) |
| --- | --- | --- | --- | --- | --- | --- | --- | --- | --- | --- | --- | --- | --- |
| CC(C)OC(=O)OCOP(=O)(CO[C@H](C)Cn1cnc2c(N)ncnc21)OCOC(=O)OC(C)C [TDF 1:1, 9-[(R)-2-[[bis[[(isopropoxycarbonyl)oxy]methoxy]phosphinyl]methoxy]propyl]adenine fumarate (1:1), reference compound] | about 4% | 1.36 | 0.98 | 3.29 | 0.99 | 1.12 | > 4 |  |  |  |  |  |  |
| Tenofovir Disoproxil succinate [TDSU ULT-1] | about 0.3% | 1.78 | 1.88 | 10.00 | 3.55 | 1.42 |  | no hygroscopicity; also recorded: not hygroscopic | no any changes in the structure | 1.09 | stable | stable | up to 3 times |
